In this test the test system is P388 leukemia ip, CD2F1 mice, survival T/C. In words: NCI In Vivo Anticancer Drug Screen. Data for tumor model P388 Leukemia (intraperitoneal) in CD2F1 (CDF1) mice. To be noted: endpoint: median survival time, higher = longer survival. Put shortly: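 Mice carrying the transplanted tumor received test compound or vehicle. Survival was recorded in each group, and the value is the treated-group measurement divided by that of the vehicle-treated control group.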

Setting [1] is: dose: 15.0 mg/kg/injection, schedule: Q01DX005 (ip), vehicle: saline.
Where [2] appears, read: dose: 30.0 mg/kg/injection, schedule: Q01DX005 (ip), vehicle: saline.
Setting [3] is: dose: 50.0 mg/kg/injection, schedule: Q01DX005 (ip), vehicle: saline.
Setting [4] is: dose: 60.0 mg/kg/injection, schedule: Q01DX005 (ip), vehicle: saline.
Setting [5] is: dose: 50.0 mg/kg/injection, schedule: Q01DX005 (ip), vehicle: Klucel (hydroxypropylcellulose) (HPC).
Where [6] appears, read: dose: 100.0 mg/kg/injection, schedule: Q01DX005 (ip), vehicle: Klucel (hydroxypropylcellulose) (HPC).
The mark [7] stands for this setting: dose: 200.0 mg/kg/injection, schedule: Q01DX005 (ip), vehicle: Klucel (hydroxypropylcellulose) (HPC).
The mark [8] stands for this setting: dose: 200.0 mg/kg/injection, schedule: Q01DX009 (ip), vehicle: saline with Tween-80.
[9] abbreviates: dose: 12.5 mg/kg/injection, schedule: Q01DX009 (ip), vehicle: saline.
The mark [10] stands for this setting: dose: 25.0 mg/kg/injection, schedule: Q01DX009 (ip), vehicle: saline.
[11] abbreviates: dose: 50.0 mg/kg/injection, schedule: Q01DX005 (ip), vehicle: saline with Tween-80.
The mark [12] stands for this setting: dose: 100.0 mg/kg/injection, schedule: Q01DX005 (ip), vehicle: saline with Tween-80.
The mark [13] stands for this setting: dose: 200.0 mg/kg/injection, schedule: Q01DX005 (ip), vehicle: saline with Tween-80.
The mark [14] stands for this setting: dose: 100.0 mg/kg/injection, schedule: Q01DX009 (ip), vehicle: saline with Tween-80.
Setting [15] is: dose: 6.25 mg/kg/injection, schedule: Q01DX009 (ip), vehicle: saline with Tween-80.
The mark [16] stands for this setting: dose: 12.5 mg/kg/injection, schedule: Q01DX009 (ip), vehicle: saline with Tween-80.

Values joined by “and” are separate entries in the source; they are usually repeats but may differ in a detail not shown here. Equal entries are not always repeated. Toxic doses and inconclusive results are not listed.

As for `O=C1c2c(O)cccc2-c2nn(CCNCCO)c3ccc(NCCNCCO)c1c23`, the T/C was 171 % of control (dose: 3.12 mg/kg/injection, schedule: Q04DX002 (ip), vehicle: water); 183 % of control (dose: 6.25 mg/kg/injection, schedule: Q04DX002 (ip), vehicle: water); 228 % of control and 235 % of control (dose: 12.5 mg/kg/injection, schedule: Q04DX002 (ip), vehicle: water); 184 % of control and 285 % of control and 588 % of control (dose: 25.0 mg/kg/injection, schedule: Q04DX002 (ip), vehicle: water); 88 % of control (dose: 50.0 mg/kg/injection, schedule: Q04DX002 (ip), vehicle: water); 190 % of control (dose: 100.0 mg/kg/injection, schedule: Q04DX002 (ip), vehicle: water).
Consider `CCS1=C2C(=O)CCCC2=Nc2ccccc21` (configuration not stated), for which the T/C is, setting by setting: under setting [1], 100 % of control; under setting [2], 104 % of control; under setting [3], 99 % of control; under setting [4], 92 % of control.
Turning to `Cc1cc[n+](Cc2cc3ccccc3nc2Cl)cc1C`, the T/C is, setting by setting: (dose: 3.75 mg/kg/injection, schedule: Q01DX005 (ip), vehicle: saline) 110 % of control; (dose: 7.5 mg/kg/injection, schedule: Q01DX005 (ip), vehicle: saline) 93 % of control; under setting [1], 104 % of control; under setting [2], 107 % of control.
Take `FC(F)(F)C1(C(F)(F)F)O[P+]2(OC(C(F)(F)F)(C(F)(F)F)c3ccccc32)c2ccccc21`: the T/C by setting is: under setting [5], 97 % of control; under setting [6], 105 % of control; under setting [7], 106 % of control.
Take `O=C(CCl)N1CCN(C/C=C/c2ccccc2)CC1`: the T/C was 103 % of control under setting [4] and 105 % of control (dose: 120.0 mg/kg/injection, schedule: Q01DX005 (ip), vehicle: saline).
Regarding `O=C(O)c1ccc(C(=O)N(CCP(c2ccccc2)c2ccccc2)CCP(c2ccccc2)c2ccccc2)cc1C(=O)O`, the T/C reads like this: (dose: 50.0 mg/kg/injection, schedule: Q01DX009 (ip), vehicle: Klucel (hydroxypropylcellulose) (HPC)) 110 % of control; (dose: 100.0 mg/kg/injection, schedule: Q01DX009 (ip), vehicle: Klucel (hydroxypropylcellulose) (HPC)) 90 % of control; (dose: 200.0 mg/kg/injection, schedule: Q01DX009 (ip), vehicle: Klucel (hydroxypropylcellulose) (HPC)) 94 % of control.
For `COC(=O)C(N)CCl` (configuration not stated), the T/C (dose: 12.5 mg/kg/injection, schedule: Q01DX009 (ip), vehicle: water) was 91 % of control; the T/C (dose: 25.0 mg/kg/injection, schedule: Q01DX009 (ip), vehicle: water) is 92 % of control; the T/C (dose: 50.0 mg/kg/injection, schedule: Q01DX009 (ip), vehicle: water) was 90 % of control; the T/C (dose: 100.0 mg/kg/injection, schedule: Q01DX009 (ip), vehicle: water) is 99 % of control; the T/C (dose: 200.0 mg/kg/injection, schedule: Q01DX009 (ip), vehicle: water) was 90 % of control.
For `COc1cc2c(cc1OC)[C@H](C(=O)O)C(c1ccc3c(c1)OCO3)N(C)C2=O` (some centres not stated), the T/C was 95 % of control under setting [5], 103 % of control under setting [6] and 88 % of control under setting [7].
In the case of `ClC1(c2ccccc2)c2ccc(Br)cc2-c2cc(Br)ccc21`, the T/C (dose: 65.0 mg/kg/injection, schedule: Q01DX009 (ip), vehicle: Klucel (hydroxypropylcellulose) (HPC)) is 109 % of control; the T/C (dose: 100.0 mg/kg/injection, schedule: Q04DX003 (ip), vehicle: saline with Tween-80) is 118 % of control; the T/C under setting [8] is 109 % of control; the T/C (dose: 200.0 mg/kg/injection, schedule: Q04DX003 (ip), vehicle: saline with Tween-80) was 122 % of control; the T/C (dose: 400.0 mg/kg/injection, schedule: Q01DX009 (ip), vehicle: saline with Tween-80) was 113 % of control; the T/C (dose: 400.0 mg/kg/injection, schedule: Q04DX003 (ip), vehicle: saline with Tween-80) is 118 % of control.
Regarding `c1ccc(CN2CCOC2)cc1`, the T/C under setting [9] was 108 % of control; the T/C under setting [10] was 108 % of control; the T/C (dose: 50.0 mg/kg/injection, schedule: Q01DX009 (ip), vehicle: saline) is 118 % of control and 124 % of control; the T/C (dose: 100.0 mg/kg/injection, schedule: Q01DX009 (ip), vehicle: saline) is 123 % of control; the T/C (dose: 200.0 mg/kg/injection, schedule: Q01DX009 (ip), vehicle: saline) is 116 % of control.
On to `CCOC(=O)C1CCCCC12OCCO2` (configuration not stated), for which the T/C under setting [3] was 95 % of control; the T/C (dose: 100.0 mg/kg/injection, schedule: Q01DX005 (ip), vehicle: saline) is 96 % of control; the T/C (dose: 200.0 mg/kg/injection, schedule: Q01DX005 (ip), vehicle: saline) is 95 % of control.
As for `O=C(CSc1nccc(=O)[nH]1)c1ccccc1`, the T/C under setting [11] is 103 % of control, the T/C under setting [12] was 103 % of control and the T/C under setting [13] was 100 % of control.
Turning to `O=C(NC(Cc1ccc(O)cc1)C(=O)N=Nc1c(O)[nH]c2ccccc12)c1ccccc1` (configuration not stated), the T/C runs as follows: (dose: 30.0 mg/kg/injection, schedule: Q01DX005 (ip), vehicle: saline with Tween-80) 90 % of control; (dose: 60.0 mg/kg/injection, schedule: Q01DX005 (ip), vehicle: saline with Tween-80) 87 % of control and 90 % of control; (dose: 120.0 mg/kg/injection, schedule: Q01DX005 (ip), vehicle: saline with Tween-80) 90 % of control; (dose: 240.0 mg/kg/injection, schedule: Q01DX005 (ip), vehicle: saline with Tween-80) 101 % of control.
With `COc1ccc(N=Nc2c(-c3ccccc3)nn(C(=S)S)c2-c2ccccc2)cc1`, the T/C by setting is: under setting [11], 93 % of control; under setting [12], 96 % of control; under setting [13], 93 % of control.
In the case of `O=C(NNS(=O)(=O)CCC(NC(=O)OCc1ccccc1)C(=O)OCc1ccccc1)OCc1ccccc1` (configuration not stated), the T/C was 110 % of control (dose: 12.5 mg/kg/injection, schedule: Q01DX009 (ip), vehicle: other); 102 % of control (dose: 25.0 mg/kg/injection, schedule: Q01DX009 (ip), vehicle: other); 96 % of control (dose: 50.0 mg/kg/injection, schedule: Q01DX009 (ip), vehicle: other); 96 % of control (dose: 100.0 mg/kg/injection, schedule: Q01DX009 (ip), vehicle: other).
In the case of `O=C(N/N=C/c1ccccc1O)C(F)(F)F`, the T/C (dose: 50.0 mg/kg/injection, schedule: Q01DX009 (ip), vehicle: saline with Tween-80) was 86 % of control and the T/C under setting [14] was 86 % of control.
Take `COC(=O)Nc1nc2ccc(Br)cc2[nH]1`: the T/C was 115 % of control (dose: 200.0 mg/kg/injection, schedule: Q04DX003 (oral), vehicle: saline with Tween-80); 107 % of control (dose: 400.0 mg/kg/injection, schedule: Q04DX003 (oral), vehicle: saline with Tween-80); 104 % of control (dose: 800.0 mg/kg/injection, schedule: Q04DX003 (oral), vehicle: saline with Tween-80); 120 % of control (dose: 1600.0 mg/kg/injection, schedule: Q04DX003 (oral), vehicle: saline with Tween-80).
As for `CSC(SC)=C1C(=O)NC(=O)NC1=O`, the T/C by setting is: (dose: 3.12 mg/kg/injection, schedule: Q01DX009 (ip), vehicle: saline with Tween-80) 104 % of control; under setting [15], 90 % of control; (dose: 6.25 mg/kg/injection, schedule: Q01DX009 (ip), vehicle: saline) 111 % of control; under setting [16], 120 % of control; under setting [9], 111 % of control; under setting [10], 124 % of control. The T/C reads like this: under setting [5], 95 % of control; under setting [6], 101 % of control.
As to `COc1ccc(Cc2nncc3ccccc23)cc1OC`, the T/C under setting [15] was 107 % of control; the T/C under setting [16] was 107 % of control; the T/C (dose: 25.0 mg/kg/injection, schedule: Q01DX009 (ip), vehicle: saline with Tween-80) was 105 % of control; the T/C under setting [14] was 95 % of control; the T/C under setting [8] is 104 % of control.

(Values after PubChem BioAssay AID330 (DTP/NCI, 2004).)
